The values that follow come from ChEMBL document CHEMBL1201862, “PubChem BioAssay data set” (2004).

Some test systems named below: HT-29; MCF7; T47D; MOLT-4; MDA-N; OVCAR-5; U-251; NCI-H522; SK-MEL-28; HCT-116; HOP-92; OVCAR-8; NCI-H460; SW-620; CCRF-CEM; A498; UACC-62; UO-31; SN12C.
What all share (test): NCI tumour cell line growth inhibition, 48 h

Molecules are shown by their SMILES.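 48-hour exposure; five concentrations; linearly interpolated endpoints. The concentration for 50% growth inhibition is given as GI50.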 Activity calls are given as the source filed them. No stated cut-off is given here; in the data, active = GI50 up to about 1.1 µM and inactive = higher.

As for `O=C(/C=C/c1ccccc1)c1cc(Br)ccc1O`, the GI50 in the test with HT-29 was 16.6 µM (inactive); in the test on MCF7, 10.8 µM (inactive); in the test on T47D, 8.45 µM (inactive); in the test with MOLT-4, 15.2 µM (inactive); in the test on MDA-N it was 15 µM (inactive); with OVCAR-5, 22.3 µM (inactive). Besides, the GI50 with U-251 is 15.1 µM (inactive); with NCI-H522 it was 12.5 µM (inactive); in the test on SK-MEL-28, 15.5 µM (inactive); in the test on HCT-116 it was 16.3 µM (inactive); in the test with HOP-92, 3.15 µM (inactive); in the test on OVCAR-8 it was 16 µM (inactive). Besides, the GI50 was 17.9 µM (inactive) in the test on NCI-H460; 21 µM (inactive) in the test on SW-620; 6.3 µM (inactive) in the test on CCRF-CEM; 13.8 µM (inactive) with A498; 13.9 µM (inactive) with UACC-62; 10.9 µM (inactive) in the test with UO-31. Also, the GI50 with SN12C was 15.1 µM (inactive).
As for `O=C(NCc1ccccc1)c1cc2ccccc2o/c1=N\c1cccc(C(F)(F)F)c1`, the GI50 with HT-29 was 35.9 µM (inactive); in the test with MCF7, 42.5 µM (inactive); in the test with T47D, 28.1 µM (inactive); with MOLT-4, 23.4 µM (inactive); in the test on MDA-N, 54.8 µM (inactive); in the test on OVCAR-5, > 100 µM (inactive). The GI50 is 71 µM (inactive) with U-251; 39 µM (inactive) with NCI-H522; > 100 µM (inactive) with SK-MEL-28; 55.6 µM (inactive) in the test with HCT-116; 75.2 µM (inactive) in the test with HOP-92; 56.1 µM (inactive) with OVCAR-8. For the same compound, the GI50 in the test on NCI-H460 was 41.2 µM (inactive); in the test with SW-620, 43 µM (inactive); with CCRF-CEM, 45.1 µM (inactive); with A498, 85.1 µM (inactive); with UACC-62, 52.2 µM (inactive); in the test on UO-31, 79.1 µM (inactive). Moreover, the GI50 with SN12C is 29.3 µM (inactive).
As to `Cc1ccc(CSC(=N)Nc2ccccc2)cc1C`, the GI50 in the test with HT-29 was 19.1 µM (inactive); in the test on MCF7, 18.7 µM (inactive); in the test on T47D it was 17.2 µM (inactive); in the test on MOLT-4, 24.2 µM (inactive); in the test with MDA-N, 18.9 µM (inactive); in the test with OVCAR-5 it was 20.2 µM (inactive). Further, the GI50 in the test on U-251 was 16.1 µM (inactive); in the test on NCI-H522, 15.8 µM (inactive); with SK-MEL-28, 24.7 µM (inactive); with HCT-116, 16.6 µM (inactive); in the test with HOP-92, 16 µM (inactive); with OVCAR-8, 19 µM (inactive). Besides, the GI50 in the test with NCI-H460 is 18.6 µM (inactive); with SW-620 it was 38.3 µM (inactive); in the test with CCRF-CEM, 20.2 µM (inactive); in the test with A498, 16.6 µM (inactive); in the test with UACC-62, 13.1 µM (inactive); in the test on SN12C, 18.9 µM (inactive).
Take `COC(=O)C1=C(C)NC(CF)=C(C(=O)OC)C1c1cccc2c(=O)c3ccccc3oc12` (stereo unspecified): the GI50 with HT-29 is 3.58 µM (inactive); with MCF7 it was 4.94 µM (inactive); in the test on T47D, 24.3 µM (inactive); in the test with MOLT-4, 5.89 µM (inactive); in the test with MDA-N, 1.92 µM (inactive); with OVCAR-5, > 100 µM (inactive). In addition, the GI50 is 6.31 µM (inactive) in the test with NCI-H522; 16 µM (inactive) in the test on SK-MEL-28; 5.2 µM (inactive) with HCT-116; 3.88 µM (inactive) in the test with HOP-92; 19.9 µM (inactive) with OVCAR-8; 4.48 µM (inactive) in the test with NCI-H460. For the same compound, the GI50 was 1.73 µM (inactive) with SW-620; 5.28 µM (inactive) in the test on CCRF-CEM; 5.53 µM (inactive) in the test with A498; 10.6 µM (inactive) with UACC-62; 6.59 µM (inactive) in the test on UO-31; 4.63 µM (inactive) with SN12C.
As for `O=C1/C(=C/c2ccc(Cl)cc2)N=C(c2ccccc2)N1c1nc2ccccc2s1`, the GI50 in the test with HT-29 was 64.1 µM (inactive); in the test on MCF7, 40.1 µM (inactive); in the test with T47D it was 46.8 µM (inactive); with MOLT-4 it was 0.548 µM (active); in the test with MDA-N, 39 µM (inactive); with OVCAR-5 it was > 100 µM (inactive). Moreover, the GI50 in the test with U-251 was 42.8 µM (inactive); in the test on NCI-H522, 24.4 µM (inactive); in the test with SK-MEL-28 it was 52.6 µM (inactive); in the test with HCT-116, 40.7 µM (inactive); in the test on HOP-92 it was 66.4 µM (inactive); in the test with OVCAR-8 it was 59.4 µM (inactive). Moreover, the GI50 in the test with NCI-H460 is 57.4 µM (inactive); in the test with SW-620 it was 64 µM (inactive); in the test with CCRF-CEM, 47.1 µM (inactive); with A498 it was 30.5 µM (inactive); with UO-31 it was 37.3 µM (inactive).
With `CC(=O)c1c2c(cc3c1CC1(Cc4ccccc4C1=O)C3)CCC2` (stereo unspecified), the GI50 is 20.5 µM (inactive) in the test with HT-29; 17.1 µM (inactive) in the test on MCF7; 6.87 µM (inactive) in the test with T47D; 10.6 µM (inactive) in the test on MOLT-4; 28.6 µM (inactive) in the test on MDA-N; 51.2 µM (inactive) in the test with OVCAR-5. Besides, the GI50 in the test with U-251 is 24.4 µM (inactive); in the test with NCI-H522 it was 25.5 µM (inactive); with SK-MEL-28, 20.9 µM (inactive); with HCT-116 it was 16.7 µM (inactive); with HOP-92, 12.2 µM (inactive); in the test on OVCAR-8, 18 µM (inactive). Also, the GI50 with NCI-H460 is 28.6 µM (inactive); with SW-620, 32.3 µM (inactive); in the test with CCRF-CEM, 16.8 µM (inactive); in the test on A498, 17.5 µM (inactive); with UO-31, 21.2 µM (inactive); with SN12C it was 21.5 µM (inactive).
For the compound `O=C(O)C1=C/C(=C(/c2ccccc2)c2cc(C(=O)O)c(O)c3ccccc23)c2ccccc2C1=O`, the GI50 in the test on HT-29, in the test with MCF7, in the test on T47D, with MOLT-4, in the test with MDA-N and with OVCAR-5 was > 100 µM (inactive) each time. For the same compound, the GI50 in the test on U-251, in the test with NCI-H522, in the test with SK-MEL-28, with HCT-116, in the test with HOP-92 and in the test with OVCAR-8 was > 100 µM (inactive) in each case. For the same compound, the GI50 is > 100 µM (inactive) with NCI-H460; > 100 µM (inactive) in the test on SW-620; < 0.01 µM (active) with CCRF-CEM; > 100 µM (inactive) in the test on A498; > 100 µM (inactive) in the test with UACC-62; > 100 µM (inactive) in the test with UO-31. In the test on SN12C, the GI50 is > 100 µM (inactive).
Regarding `C/C(=C\c1csc(C)n1)[C@@H]1C[C@@H]2O[C@@H]2CCC[C@H](C)[C@H](O)[C@@H](C)C(=O)C(C)(C)[C@@H](O)CC(=O)O1` [EPOTHILONE A], the GI50 with HT-29, in the test on MCF7, in the test with T47D, in the test on MOLT-4, in the test with MDA-N and with OVCAR-5 was < 0.0001 µM (active) in each case. Further, the GI50 is < 0.0001 µM (active) with U-251; < 0.0001 µM (active) in the test with NCI-H522; < 0.0001 µM (active) in the test on HCT-116; 0.0039 µM (active) in the test with HOP-92; < 0.0001 µM (active) in the test on OVCAR-8; < 0.0001 µM (active) in the test with NCI-H460. Moreover, the GI50 in the test on SW-620, in the test with CCRF-CEM, in the test with A498, in the test with UACC-62, with UO-31 and in the test with SN12C was < 0.0001 µM (active) in each case.
